Data taken from ChEMBL document CHEMBL1201862, “PubChem BioAssay data set” (2004).
Activity calls are given as the source filed them.

Assays:
[1] = mRNA 3' processing disruption, beta-gal signal increase – luminescence, S. cerevisiae SKY197-pL101, dose response (AID 2525); format: functional, cell-based
[2] = Luminescence Cell-Based Dose Confirmation HTS to Identify Inhibitors of Polyadenylation.; format: functional
[3] = test system: Streptococcus sp. 'group A'; experiment: Streptococcus pyogenes SK(-)GAS viability under kanamycin – luminescence, BacTiterGlo, confirmation, counter-screen for streptokinase expression inhibitor project, dose response (AID 1900); format: functional, organism-based
[4] = biological target: T1, Neuropeptide Y receptor type 2 (Homo sapiens, UniProt P49146); experiment: IC50 for human NPY-Y2 blockade – cell-based, counter-screen for NPY-Y1 antagonist project, dose response (AID 1278); format: functional
T1 sequence (P49146 whole entry): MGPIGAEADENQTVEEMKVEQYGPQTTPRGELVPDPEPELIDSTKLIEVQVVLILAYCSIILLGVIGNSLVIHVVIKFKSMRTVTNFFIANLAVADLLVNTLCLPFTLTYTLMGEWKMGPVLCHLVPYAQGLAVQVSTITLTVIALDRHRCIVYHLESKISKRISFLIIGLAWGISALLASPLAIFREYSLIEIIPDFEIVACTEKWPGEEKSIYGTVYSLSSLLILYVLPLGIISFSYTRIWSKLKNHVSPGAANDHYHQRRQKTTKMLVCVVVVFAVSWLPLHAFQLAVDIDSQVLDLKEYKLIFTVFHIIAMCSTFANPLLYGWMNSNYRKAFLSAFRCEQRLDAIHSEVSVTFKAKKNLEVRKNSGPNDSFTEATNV

Streptokinase A = biological target: T2, Streptokinase A (Streptococcus pyogenes serotype M1, UniProt P10520); experiment: viability-normalized secreted streptokinase activity reduction – plasminogen activation absorbance, OD405, dose response (AID 1914); format: functional, Streptococcus pyogenes M1 GAS;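 note: secreted streptokinase activity via plasminogen activation per viability signal from cell pellet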
T2 sequence (P10520 whole entry): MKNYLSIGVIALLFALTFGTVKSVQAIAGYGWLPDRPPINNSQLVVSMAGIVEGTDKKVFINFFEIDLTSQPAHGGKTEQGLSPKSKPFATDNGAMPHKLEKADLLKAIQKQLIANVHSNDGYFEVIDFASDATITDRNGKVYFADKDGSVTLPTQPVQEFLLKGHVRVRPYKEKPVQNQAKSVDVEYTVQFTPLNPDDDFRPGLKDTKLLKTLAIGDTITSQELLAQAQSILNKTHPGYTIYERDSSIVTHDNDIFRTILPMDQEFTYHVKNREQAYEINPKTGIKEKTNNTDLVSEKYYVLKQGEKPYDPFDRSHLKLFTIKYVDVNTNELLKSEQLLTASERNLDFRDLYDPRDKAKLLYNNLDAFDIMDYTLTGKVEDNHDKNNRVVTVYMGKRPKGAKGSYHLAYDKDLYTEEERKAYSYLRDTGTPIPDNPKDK

[5] = biological target: T3, Neuropeptide Y receptor type 1 (Homo sapiens, UniProt P25929); experiment: IC50 of human NPY-Y1 blockers – cell-based, dose response (AID 1277); format: functional
T3 sequence (P25929 whole entry): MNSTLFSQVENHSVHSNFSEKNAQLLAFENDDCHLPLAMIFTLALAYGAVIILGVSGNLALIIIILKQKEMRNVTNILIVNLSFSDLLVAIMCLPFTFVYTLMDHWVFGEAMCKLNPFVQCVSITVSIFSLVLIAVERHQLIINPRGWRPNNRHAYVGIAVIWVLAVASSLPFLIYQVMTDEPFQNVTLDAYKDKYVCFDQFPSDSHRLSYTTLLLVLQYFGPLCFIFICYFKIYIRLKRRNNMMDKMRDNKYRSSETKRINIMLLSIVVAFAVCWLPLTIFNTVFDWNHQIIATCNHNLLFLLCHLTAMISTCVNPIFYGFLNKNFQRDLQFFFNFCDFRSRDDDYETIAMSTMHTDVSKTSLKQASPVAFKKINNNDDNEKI

Streptococcus = experiment: GAS UMAA2166 growth inhibition – luminescence, BacTiterGlo, counter-screen for streptokinase expression inhibitor project, dose response (AID 1915); format: functional, organism-based;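 note: potency for reduction of bacterial viability or growth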
[6] = viability of uninfected HEp-2 cells – cell-based, HTS, cytotoxicity control for RSV inhibitor project, dose response (AID 2410); format: functional; conditions: human respiratory syncytial virus
[7] = CCR5-tropic HIV-1 fusion blockers – cell-based, CCR5-tropic Env, dose response (AID 2279); format: functional
[8] = biological target: FAD-linked sulfhydryl oxidase ALR (Homo sapiens, UniProt P55789); experiment: ALR-catalysed DTT oxidation blockers – biochemical, H2O2 detection, luminescence, cherry-pick, dose response (AID 493248)
Sequence of FAD-linked sulfhydryl oxidase ALR (P55789 whole entry): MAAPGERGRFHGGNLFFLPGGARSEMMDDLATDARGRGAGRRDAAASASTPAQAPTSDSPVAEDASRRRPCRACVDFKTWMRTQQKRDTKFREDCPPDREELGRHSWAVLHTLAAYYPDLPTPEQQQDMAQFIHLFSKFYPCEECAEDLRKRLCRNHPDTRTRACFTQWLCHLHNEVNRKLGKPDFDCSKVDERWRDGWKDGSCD

Genome polyprotein = Genome polyprotein (dengue virus type 2, UniProt P29990); experiment: flavivirus cap methylation enzyme inhibition – biochemical, confirmation dose response, primary screen (AID 588689); format: functional
Sequence of Genome polyprotein (P29990 2492-3391 limits assumed): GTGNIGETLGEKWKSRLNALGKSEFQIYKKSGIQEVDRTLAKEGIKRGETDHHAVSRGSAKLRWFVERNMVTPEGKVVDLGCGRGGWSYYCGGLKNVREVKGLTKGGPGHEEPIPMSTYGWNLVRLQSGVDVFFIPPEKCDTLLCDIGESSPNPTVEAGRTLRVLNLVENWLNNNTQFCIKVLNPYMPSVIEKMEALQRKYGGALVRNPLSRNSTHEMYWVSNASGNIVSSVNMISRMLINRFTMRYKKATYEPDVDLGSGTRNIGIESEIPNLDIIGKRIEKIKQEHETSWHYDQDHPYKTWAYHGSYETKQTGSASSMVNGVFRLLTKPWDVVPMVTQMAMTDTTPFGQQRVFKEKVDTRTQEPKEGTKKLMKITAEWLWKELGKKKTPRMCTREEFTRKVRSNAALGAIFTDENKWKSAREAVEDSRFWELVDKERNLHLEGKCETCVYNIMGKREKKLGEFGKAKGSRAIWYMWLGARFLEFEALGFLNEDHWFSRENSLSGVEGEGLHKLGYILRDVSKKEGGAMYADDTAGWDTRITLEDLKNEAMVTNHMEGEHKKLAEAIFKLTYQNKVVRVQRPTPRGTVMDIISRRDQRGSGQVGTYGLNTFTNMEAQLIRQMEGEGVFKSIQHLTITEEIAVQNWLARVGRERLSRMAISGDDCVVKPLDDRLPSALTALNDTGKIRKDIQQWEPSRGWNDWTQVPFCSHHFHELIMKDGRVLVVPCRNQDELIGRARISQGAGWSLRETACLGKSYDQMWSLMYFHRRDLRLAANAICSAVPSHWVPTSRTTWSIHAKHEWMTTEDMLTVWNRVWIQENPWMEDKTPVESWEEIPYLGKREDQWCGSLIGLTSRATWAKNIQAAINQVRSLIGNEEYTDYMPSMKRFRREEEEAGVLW

[9] = biological target: T4, Long-chain-fatty-acid--AMP ligase FadD28 (Mycobacterium tuberculosis, UniProt P9WQ59); experiment: Fluorescence polarization aasay to screen for inhibitors that compete for the binding of FadD28 to a bisubstrate Measured in Biochemical System Using Plate Reader - 2147-01_Inhibitor_Dose_CherryPick_Activity.; format: functional, Mycobacterium tuberculosis H37Rv
T4 sequence (P9WQ59 whole entry): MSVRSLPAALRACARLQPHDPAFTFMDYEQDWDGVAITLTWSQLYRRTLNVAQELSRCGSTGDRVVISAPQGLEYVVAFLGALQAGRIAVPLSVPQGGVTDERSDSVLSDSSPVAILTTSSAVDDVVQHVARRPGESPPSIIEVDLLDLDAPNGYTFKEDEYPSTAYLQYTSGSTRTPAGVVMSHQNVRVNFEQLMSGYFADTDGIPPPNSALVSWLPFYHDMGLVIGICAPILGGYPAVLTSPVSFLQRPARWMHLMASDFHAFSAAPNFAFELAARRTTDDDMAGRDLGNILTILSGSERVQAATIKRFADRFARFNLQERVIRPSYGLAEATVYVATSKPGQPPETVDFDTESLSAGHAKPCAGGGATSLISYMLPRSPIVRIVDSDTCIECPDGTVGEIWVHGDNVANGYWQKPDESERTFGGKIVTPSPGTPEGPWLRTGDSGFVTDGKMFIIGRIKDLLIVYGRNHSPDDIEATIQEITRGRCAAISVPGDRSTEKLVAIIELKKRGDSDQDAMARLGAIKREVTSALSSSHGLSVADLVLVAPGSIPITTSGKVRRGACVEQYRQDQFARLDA

[10] = mitochondrial function rescue without frataxin homolog – Friedreich's ataxia, plus single-dose screen, dose response (AID 1465); format: functional;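 note: yeast depleted of Yfh1p frataxin homolog grown on glycerol needing respiration; WST-1 tetrazolium dye reduction as measure of cellular dehydrogenase metabolic activity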
[11] = biological target: T1, Neuropeptide Y receptor type 2; experiment: Fluorescence-based counterscreen for agonists of NPY-Y1: cell-based high-throughput dose response assay for agonists of NPY-Y2.; format: functional
HEK293 = experiment: Fluorescence-based counterscreen for potentiators or agonists of NPY-Y1: cell-based high-throughput dose response assay for inhibitors of cyclic nucleotide gated ion channel (CNGC) activity. In this assay, the parental HEK293 cell line transfected with a cyclic-nucleotide gated ion channel (CNGC)-based cAMP sensor is used to measure inhibition of isoproterenol-induced CNGC …; format: functional; conditions: Homo sapiens
[12] = biological target: T3, Neuropeptide Y receptor type 1; experiment: Fluorescence-based dose response cell-based high-throughput screening assay for agonists of NPY-Y1. [Related pubchem assays: 1697 (Screening assay (NPY-Y1 agonists).), 1359 (Screening assay (NPY-Y2 potentiators or agonists).), 1304 (Screening assay (NPY-Y1 potentiators or agonists).), 1704 (Screening assay (CNGC inhibitors).), 1791 (Summary AID.)]; format: functional
[13] = Luminescence Cell-Based Dose Retest to Confirm Inhibitors of Cancer Stem Cells. [Related pubchem assays (depositor defined):AID2717, AID2721]; format: functional; conditions: Homo sapiens
INS1 = experiment: INS-1E survival protection against cytokine death – cell-based, luminescence, retest, dose response (AID 449756); format: functional; conditions: Rattus norvegicus;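 note: cell death triggered by IL-1 beta plus TNF-alpha plus IFN-gamma mixture; protective hits raise ATP signal compared with cytokine alone wells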
Vero = experiment: cells; format: functional; conditions: Chlorocebus sabaeus
Beta-galactosidase = Beta-galactosidase (Escherichia coli, UniProt Q8VNN2); experiment: Dose response counterscreen for EBI2 assay utilizing the enzyme, b-galactosidase.; format: functional
Sequence of Beta-galactosidase (Q8VNN2 whole entry): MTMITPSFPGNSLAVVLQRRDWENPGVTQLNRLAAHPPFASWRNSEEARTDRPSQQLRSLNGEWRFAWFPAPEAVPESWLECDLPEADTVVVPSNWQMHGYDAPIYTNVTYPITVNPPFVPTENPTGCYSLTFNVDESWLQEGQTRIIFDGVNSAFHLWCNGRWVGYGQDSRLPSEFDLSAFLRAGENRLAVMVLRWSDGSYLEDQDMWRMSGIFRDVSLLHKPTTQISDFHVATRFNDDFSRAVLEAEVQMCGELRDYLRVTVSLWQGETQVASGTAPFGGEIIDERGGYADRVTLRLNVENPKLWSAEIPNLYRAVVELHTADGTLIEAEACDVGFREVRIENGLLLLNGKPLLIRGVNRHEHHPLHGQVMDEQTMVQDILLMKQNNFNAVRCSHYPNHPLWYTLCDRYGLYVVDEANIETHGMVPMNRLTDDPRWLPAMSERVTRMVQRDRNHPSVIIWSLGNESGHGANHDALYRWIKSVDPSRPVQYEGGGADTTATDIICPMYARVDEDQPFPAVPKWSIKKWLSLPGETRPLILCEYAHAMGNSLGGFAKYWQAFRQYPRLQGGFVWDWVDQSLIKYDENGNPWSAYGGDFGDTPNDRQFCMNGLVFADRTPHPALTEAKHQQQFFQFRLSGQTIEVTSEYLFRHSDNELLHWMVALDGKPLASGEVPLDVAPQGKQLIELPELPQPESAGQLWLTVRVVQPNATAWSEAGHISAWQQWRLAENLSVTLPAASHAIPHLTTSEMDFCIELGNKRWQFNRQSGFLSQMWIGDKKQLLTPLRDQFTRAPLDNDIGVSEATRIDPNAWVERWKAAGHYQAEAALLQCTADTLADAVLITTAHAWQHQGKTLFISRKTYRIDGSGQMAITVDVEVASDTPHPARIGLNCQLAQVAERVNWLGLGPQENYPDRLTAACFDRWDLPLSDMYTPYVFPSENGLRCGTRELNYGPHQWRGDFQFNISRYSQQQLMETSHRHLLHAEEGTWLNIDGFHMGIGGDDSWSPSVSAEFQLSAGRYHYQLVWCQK

In the case of `CC(=O)c1ccc(Sc2ccccc2)c([N+](=O)[O-])c1`, the EC50 [1] is reported as 2.88 µM (active) and the EC50 [2] is reported as 11.4 µM (active).

With `COc1ccc(C(=O)/C(C#N)=N/Nc2cccc([N+](=O)[O-])c2)cc1` the EC50 [3] was 22.8 µM (active), the IC50 [4] was > 35 µM (not active) and the EC50 (Streptokinase A) was > 150 µM (not active). For the same compound, the IC50 [5] was > 35 µM (not active) and the EC50 (Streptococcus) was 94.3 µM (active).

With `O=C(O)c1cc(N/N=C/c2ccc(-c3ccccc3)cc2)ccc1Cl` the CC50 [6] was 31.1 µM (active), the IC50 [7] was 11 µM (active) and the AC50 [8] was 1.83 µM (active). For the same compound, the IC50 (Genome polyprotein) was 61.5 µM (active) and the AC50 [9] was 18.4 µM (active).

With `CC1(OC(=O)C2CCCC2)C(=O)C=C2C=C(c3ccsc3)N(Cc3ccco3)C=C2C1=O` (stereo not given) the EC50 [10] was > 100 µM (active).

In the case of `O=C(c1cc(-c2cccc(O)c2)on1)N1CCN(C(c2ccccc2)c2ccccc2)CC1`, the EC50 [11] is reported as > 35.4 µM (not active), the IC50 (HEK293) is reported as > 35.4 µM (not active) and the EC50 [12] is reported as > 35.4 µM (not active). For the same compound, the AC50 [13] was 1.58 µM (active), the AC50 (INS1) was 9.7 µM (active) and the CC50 (Vero) was 15.4 µM (active). The IC50 (Beta-galactosidase) was 151 µM (inactive).
